Source: PMC7216583 (Parasites & Vectors, 2020)
Counter-ions that a name gives are not always drawn. Like-named read-outs stand apart in the source and are kept apart here.

System: Toxoplasma gondii RH-2F tachyzoites
Test: microbe, parasite or virus in culture
Conditions: 72 h
[1] = read-out: Parasite inhibition (%) mean, preliminary screen of compound library, mean
[2] = read-out: Parasite inhibition (%) mean
[3] = read-out: Parasite inhibition (%) mean, preliminary screen, mean

Row | SMILES | inhibition of growth at 5 µM [1] [%] | inhibition of growth at 5 µM [3] [%] | also measured
1 | CN1C2=CC(=O)/C(=N\NC(N)=O)C=C2CC1S(=O)(=O)O (stereo not shown) [Carbazochrome sodium sulfonate] | 1.2 | – | –
2 | CO/N=C(\C(=O)N[C@@H]1C(=O)N2C(C(=O)OCOC(=O)C(C)(C)C)=C(/C=C\c3scnc3C)CS[C@H]12)c1csc(N)n1 [Cefditoren pivoxil] | 0.2 | – | –
3 | CO/N=C(\C(=O)N[C@@H]1C(=O)N2C(C(=O)O)=C(Cn3ccc(=N)n3CCO)CS[C@H]12)c1csc(N)n1 [Cefoselis sulfate] | 12.1 | – | –
4 | C/C=C(\C)C(=O)N[C@@H](c1ccccc1)[C@@H](O)C(=O)O[C@H]1C[C@@]2(O)[C@@H](OC(=O)c3ccccc3)[C@@H]3[C@]4(OC(C)=O)CO[C@@H]4C[C@H](O)[C@@]3(C)C(=O)[C@H](OC(C)=O)C(=C1C)C2(C)C [Cephalomannine] | – | – | inhibition of growth at 5 µM [2]: 22.4%
5 | Cc1cc(C2CCCCC2)n(O)c(=O)c1 [Ciclopirox (Penlac)] | 33.4 | – | –
6 | CCOC(=O)[C@H](CCc1ccccc1)N[C@H]1CCCN2CCC[C@H](C(=O)O)N2C1=O [Cilazapril monohydrate (Inhibace)] | – | 11.9 | –
7 | COc1cc(/C=C/C(=O)N2CCN(CC(=O)N3CCCC3)CC2)cc(OC)c1OC [Cinepazide maleate] | 1.5 | – | –
8 | COc1ccc(C[C@@H]2c3cc(OC)c(OC)cc3CC[N@+]2(C)CCC(=O)OCCCCCOC(=O)CC[N@@+]2(C)CCc3cc(OC)c(OC)cc3[C@H]2Cc2ccc(OC)c(OC)c2)cc1OC [Cisatracurium besylate (Nimbex)] | – | 4.5 | –
9 | CCCC(=O)OCOC(=O)C1=C(C)NC(C)=C(C(=O)OC)C1c1cccc(Cl)c1Cl (stereo not shown) [Cleviprex (Clevidipine)] | – | 23.8 | –
10 | COC(=O)[C@H](c1ccccc1Cl)N1CCc2sccc2C1 [Clopidogrel (Plavix)] | – | – | inhibition of growth at 5 µM [2]: -0.4%
11 | Cc1onc(-c2ccccc2Cl)c1C(=O)N[C@@H]1C(=O)N2[C@@H](C(=O)O)C(C)(C)S[C@@H]12 [Cloxacillin sodium (Cloxacap)] | 0.2 | – | –
12 | CC(C)c1nc(CN(C)C(=O)N[C@@H](CCN2CCOCC2)C(=O)N[C@H](CC[C@H](Cc2ccccc2)NC(=O)OCc2cncs2)Cc2ccccc2)cs1 [Cobicistat (GS-9350)] | 0.8 | – | –
13 | Cc1nc2c([nH]1)-c1ccccc1N(C(=O)c1ccc(NC(=O)c3ccccc3-c3ccccc3)cc1)CC2 [Conivaptan HCl (Vaprisol)] | 6.6 | – | –
14 | CC(=O)OCC(=O)[C@]1(O)CC[C@H]2[C@@H]3CCC4=CC(=O)CC[C@]4(C)[C@@H]3C(=O)C[C@@]21C [Cortisone acetate (Cortone)] | 44.8 | – | –
15 | N#CCNC(=O)c1ccc(-c2ccnc(Nc3ccc(N4CCOCC4)cc3)n2)cc1 [Cyt387] | 28.9 | – | –
16 | OC[C@@H](O)[C@@H](O)[C@H](O)[C@H](O)CO [D-Mannitol (Osmitrol)] | 0.2 | – | –
17 | CNC(=O)c1cc(Oc2ccc(NC(=O)Nc3cc(C(C)(C)C)nn3-c3ccc4ncccc4c3)c(F)c2)ccn1 [DCC-2036 (Rebastinib)] | 25.5 | – | –

Row | SMILES | inhibition of growth at 5 µM [1] [%] | inhibition of growth at 5 µM [3] [%] | also measured
18 | Cc1ccc2c(=O)c3cccc(CC(=O)O)c3oc2c1C [DMXAA (ASA404)] | – | -33.6 | –
19 | CN(C)/N=N/c1[nH]cnc1C(N)=O [Dacarbazine (DTIC-Dome)] | – | 5.8 | –
20 | CN(C)[C@@H](CCOc1cccc2ccccc12)c1ccccc1 [Dapoxetine HCl (Priligy)] | – | 0.8 | –
21 | CN(C)[C@@H](CCOc1cccc2ccccc12)c1ccccc1 [Dapoxetine hydrochloride (Priligy)] | -0.2 | – | –
22 | Cc1nc(Nc2ncc(C(=O)Nc3c(C)cccc3Cl)s2)cc(N2CCN(CCO)CC2)n1 [Dasatinib (BMS-354825)] | – | 10.5 | –
23 | O=C(O)c1ccc(-n2nc(-c3ccccc3O)nc2-c2ccccc2O)cc1 [Deferasirox (Exjade)] | -0.6 | – | –
24 | Cc1cccc(Cc2c[nH]cn2)c1C [Detomidine HCl] | – | 60.4 | –
25 | O=C[C@H](O)[C@@H](O)[C@H](O)[C@H](O)CO [Dextrose (D-glucose)] | -33.7 | – | –
26 | CCCCOc1cc(C(=O)NCCN(CC)CC)c2ccccc2n1 [Dibucaine (Cinchocaine) HCl] | 8.9 | – | –
27 | O=C(O)Cc1ccccc1Nc1c(Cl)cccc1Cl [Diclofenac Diethylamine] | -21.2 | – | –
28 | C[C@]12CCC3=C4CCC(=O)C=C4CC[C@H]3[C@@H]1CC[C@@]2(O)CC#N [Dienogest] | – | 12 | –
29 | COc1ccc([C@@H]2Sc3ccccc3N(CCN(C)C)C(=O)[C@@H]2OC(C)=O)cc1 [Diltiazem HCl (Tiazac)] | -15.8 | – | –
30 | O=S(=O)(O)CCSSCCS(=O)(=O)O [Dimesna] | – | -0.8 | –
31 | CCCC(CCC)C(=O)O [Divalproex sodium] | – | 1.4 | –
32 | C[C@@H](O)[C@H]1C(=O)N2C(C(=O)O)=C(S[C@@H]3CN[C@H](CNS(N)(=O)=O)C3)[C@H](C)[C@H]12 [Doripenem Hydrate] | 0.8 | – | –
33 | C=C1/C(=C/C=C2\CCC[C@@]3(C)[C@H]2CC[C@H]3[C@H](C)/C=C/[C@@H](C)C(C)C)C[C@H](O)C[C@@H]1O [Doxercalciferol (Hectorol)] | 0.1 | – | –
34 | CCCCc1oc2ccc(NS(C)(=O)=O)cc2c1C(=O)c1ccc(OCCCN(CCCC)CCCC)cc1 [Dronedarone HCl (Multaq)] | 2.5 | – | –
